{
  "source": "patent US20020137929A1",
  "about": "“1 - (3-heterocyclylphenyl) isothiourea, -isourea, -guanidine and -amidine herbicidal agents” (Intellectual Property Department, BASF Aktiengesellschaft, priority 1998, published 2002)",
  "key": {"CYPIR (Rice Flatsedge)": {"test_system": "CYPIR (Rice Flatsedge)", "assay": "Preemergence weed control under flooded paddy conditions", "assay_type": "in vivo, Cyperus iria", "details": "rated 3-4 weeks after treatment", "procedure,_shortened": "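Ratings on a 0-9 visual scale cover stand, vigor, malformation, size, chlorosis and overall appearance relative to a control, taken three to four weeks post-treatment. Application was into flood water over freshly sown silt loam at roughly 0.0313 to 0.500 kg/ha.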"}, "ABUTH (Velvetleaf)": {"test_system": "ABUTH (Velvetleaf)", "assay": "Postemergence herbicidal evaluation", "assay_type": "in vivo, Abutilon theophrasti", "details": "postemergence", "procedure,_shortened": "(§1)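 Each compound, dispersed in an acetone/water mix (50/50) carrying 0.5% TWEEN 20, is nozzle-sprayed at 40 psi on approximately two-week-old seedlings at about 0.0156–0.500 kg/ha. Plants are assessed 4–5 weeks afterward on a 0–9 scale relative to control; duplicate tests are averaged.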"}, "ORYSAT (Rice, Tebonnet)": {"test_system": "ORYSAT (Rice, Tebonnet)", "assay": "Postemergence herbicidal evaluation", "assay_type": "in vivo, Oryza sativa, (L.) Tebonnet", "details": "postemergence", "procedure,_shortened": "as §1"}, "GALAP (Galium)": {"test_system": "GALAP (Galium)", "assay": "Preemergence herbicidal evaluation", "assay_type": "in vivo, Galium aparine", "details": "rated 4-5 weeks after treatment", "procedure,_shortened": "(§2)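 Sown cups got a single aqueous acetone spray of test compound (roughly 0.0156–0.500 kg/ha) before seedlings emerged. Evaluation, 4–5 weeks on, used a 0–9 visual scale covering plant stand, vigor, size, malformation, chlorosis and general appearance compared with controls.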"}, "SETVI (Foxtail, Green) [1]": {"test_system": "SETVI (Foxtail, Green)", "assay": "Preemergence herbicidal evaluation", "assay_type": "in vivo, Setaria viridis", "details": "rated 4-5 weeks after treatment", "procedure,_shortened": "as §2"}, "ZEAMX (Corn, Field)": {"test_system": "ZEAMX (Corn, Field)", "assay": "Postemergence herbicidal evaluation", "assay_type": "in vivo, Zea mays", "details": "postemergence", "procedure,_shortened": "as §1"}, "SETVI (Foxtail, Green) [2]": {"test_system": "SETVI (Foxtail, Green)", "assay": "Postemergence herbicidal evaluation", "assay_type": "in vivo, Setaria viridis", "details": "postemergence", "procedure,_shortened": "as §1"}, "[3]": {"test_system": "GLXMAW (Soybean, Williams)", "assay": "Postemergence herbicidal evaluation", "assay_type": "in vivo, Glycine max, (L.) Merr. cv Williams", "details": "postemergence", "procedure,_shortened": "as §1"}, "[4]": {"test_system": "SAGPY (Arrowhead (Pygmaea))", "assay": "Postemergence weed control under flooded paddy conditions", "assay_type": "in vivo, Sagittaria pygmaea", "details": "postemergence weeds, rated 3 to 4 weeks after treatment", "procedure,_shortened": "(§3)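 Flood-water application, about 0.0313–0.500 kg/ha a.i. in aqueous/acetone 50/50 v/v; water depth 1.5–3 cm throughout. Weeds 3–5 cm, rice 1.5–2.5 leaf. Greenhouse; 0–9 visual rating vs control at 3–4 wk.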"}, "AMBEL (Ragweed, Common)": {"test_system": "AMBEL (Ragweed, Common)", "assay": "Preemergence herbicidal evaluation", "assay_type": "in vivo, Ambrosia artemisifolia", "details": "rated 4-5 weeks after treatment", "procedure,_shortened": "as §2"}, "[5]": {"test_system": "ECHORC (Watergrass (Calif.))", "assay": "Postemergence weed control under flooded paddy conditions", "assay_type": "in vivo, Echinochloa oryzoides", "details": "postemergence weeds, rated 3 to 4 weeks after treatment", "procedure,_shortened": "as §3"}, "[6]": {"test_system": "TRZAWR (Wheat, Winter, cv Riband)", "assay": "Postemergence herbicidal evaluation", "assay_type": "in vivo, Triticum aestivum", "details": "postemergence", "procedure,_shortened": "as §1"}, "CYPSE (Flatsedge)": {"test_system": "CYPSE (Flatsedge)", "assay": "Postemergence weed control under flooded paddy conditions", "assay_type": "in vivo, Cyperus serotinus", "details": "postemergence weeds, rated 3 to 4 weeks after treatment", "procedure,_shortened": "as §3"}, "[7]": {"test_system": "CHEAL (Lambsquarters, Common)", "assay": "Postemergence herbicidal evaluation", "assay_type": "in vivo, Chenopodium album", "details": "postemergence", "procedure,_shortened": "as §1"}},
  "data": [
    {"smiles": "C=CCN1C(=O)C(CC(=O)OC(C)C)SC1=Nc1cc(-n2c(=O)cc(C(F)(F)F)n(C)c2=O)c(F)cc1Cl", "note": "(centres unmarked) [Compound 66, Isopropyl 3-allyl-2-{{2-chloro-5-[3,6-dihydro-3-methyl-2,6-dioxo-4-(trifluoromethyl)-1(2H)-pyrimidinyl]-4-fluorophenyl}imino}-4-oxo-5-thiazolidineacetate]", "values": [
      {"measurement": "CYPIR herbicidal effect rating", "setting": "CYPIR (Rice Flatsedge); 0.0313 kg/ha", "result": 6.0},
      {"measurement": "CYPIR herbicidal effect rating", "setting": "CYPIR (Rice Flatsedge); 0.0625 kg/ha", "result": 6.0},
      {"measurement": "CYPIR herbicidal effect rating", "setting": "CYPIR (Rice Flatsedge); 0.1250 kg/ha", "result": 7.0},
      {"measurement": "CYPIR herbicidal effect rating", "setting": "CYPIR (Rice Flatsedge); 0.2500 kg/ha", "result": 7.0},
      {"measurement": "ABUTH herbicidal rating", "setting": "ABUTH (Velvetleaf); rate 0.0158 kg/ha", "result": 9.0},
      {"measurement": "ABUTH herbicidal rating", "setting": "ABUTH (Velvetleaf); rate 0.0313 kg/ha", "result": 9.0},
      {"measurement": "ABUTH herbicidal rating", "setting": "ABUTH (Velvetleaf); rate 0.0625 kg/ha", "result": 9.0},
      {"measurement": "ABUTH herbicidal rating", "setting": "ABUTH (Velvetleaf); rate 0.1250 kg/ha", "result": 9.0},
      {"measurement": "ORYSAT herbicidal rating", "setting": "ORYSAT (Rice, Tebonnet); rate 0.0158 kg/ha", "result": 3.5},
      {"measurement": "ORYSAT herbicidal rating", "setting": "ORYSAT (Rice, Tebonnet); rate 0.0313 kg/ha", "result": 5.0},
      {"measurement": "ORYSAT herbicidal rating", "setting": "ORYSAT (Rice, Tebonnet); rate 0.0625 kg/ha", "result": 5.5},
      {"measurement": "ORYSAT herbicidal rating", "setting": "ORYSAT (Rice, Tebonnet); rate 0.1250 kg/ha", "result": 5.5},
      {"measurement": "Preemergence herbicidal rating GALAP", "setting": "GALAP (Galium); rate 0.0156 kg/ha", "result": 0.0},
      {"measurement": "Preemergence herbicidal rating GALAP", "setting": "GALAP (Galium); rate 0.0313 kg/ha", "result": 0.0},
      {"measurement": "Preemergence herbicidal rating GALAP", "setting": "GALAP (Galium); rate 0.0625 kg/ha", "result": 0.0},
      {"measurement": "Preemergence herbicidal rating GALAP", "setting": "GALAP (Galium); rate 0.1250 kg/ha", "result": 3.5},
      {"measurement": "Preemergence herbicidal rating GALAP", "setting": "GALAP (Galium); rate 0.2500 kg/ha", "result": 8.0},
      {"measurement": "Preemergence herbicidal rating GALAP", "setting": "GALAP (Galium); rate 0.5000 kg/ha", "result": 9.0},
      {"measurement": "Preemergence herbicidal rating SETVI", "setting": "SETVI (Foxtail, Green) [1]; rate 0.0156 kg/ha", "result": 0.0},
      {"measurement": "Preemergence herbicidal rating SETVI", "setting": "SETVI (Foxtail, Green) [1]; rate 0.0313 kg/ha", "result": 0.5},
      {"measurement": "Preemergence herbicidal rating SETVI", "setting": "SETVI (Foxtail, Green) [1]; rate 0.0625 kg/ha", "result": 0.5},
      {"measurement": "Preemergence herbicidal rating SETVI", "setting": "SETVI (Foxtail, Green) [1]; rate 0.1250 kg/ha", "result": 6.0},
      {"measurement": "Preemergence herbicidal rating SETVI", "setting": "SETVI (Foxtail, Green) [1]; rate 0.2500 kg/ha", "result": 7.5},
      {"measurement": "Preemergence herbicidal rating SETVI", "setting": "SETVI (Foxtail, Green) [1]; rate 0.5000 kg/ha", "result": 9.0},
      {"measurement": "ZEAMX herbicidal rating", "setting": "ZEAMX (Corn, Field); rate 0.0158 kg/ha", "result": 7.0},
      {"measurement": "ZEAMX herbicidal rating", "setting": "ZEAMX (Corn, Field); rate 0.0313 kg/ha", "result": 8.5},
      {"measurement": "ZEAMX herbicidal rating", "setting": "ZEAMX (Corn, Field); rate 0.0625 kg/ha", "result": 9.0},
      {"measurement": "ZEAMX herbicidal rating", "setting": "ZEAMX (Corn, Field); rate 0.1250 kg/ha", "result": 9.0},
      {"measurement": "SETVI herbicidal rating", "setting": "SETVI (Foxtail, Green) [2]; rate 0.0158 kg/ha", "result": 2.0},
      {"measurement": "SETVI herbicidal rating", "setting": "SETVI (Foxtail, Green) [2]; rate 0.0313 kg/ha", "result": 9.0},
      {"measurement": "SETVI herbicidal rating", "setting": "SETVI (Foxtail, Green) [2]; rate 0.0625 kg/ha", "result": 9.0},
      {"measurement": "SETVI herbicidal rating", "setting": "SETVI (Foxtail, Green) [2]; rate 0.1250 kg/ha", "result": 9.0},
      {"measurement": "GLXMAW herbicidal rating", "setting": "[3]; rate 0.0158 kg/ha", "result": 7.0},
      {"measurement": "GLXMAW herbicidal rating", "setting": "[3]; rate 0.0313 kg/ha", "result": 8.5},
      {"measurement": "GLXMAW herbicidal rating", "setting": "[3]; rate 0.0625 kg/ha", "result": 8.5},
      {"measurement": "GLXMAW herbicidal rating", "setting": "[3]; rate 0.1250 kg/ha", "result": 9.0},
      {"measurement": "Herbicidal rating SAGPY", "setting": "[4]; Rate 0.0313 kg/ha", "result": 3.0},
      {"measurement": "Herbicidal rating SAGPY", "setting": "[4]; Rate 0.0625 kg/ha", "result": 4.0},
      {"measurement": "Herbicidal rating SAGPY", "setting": "[4]; Rate 0.1250 kg/ha", "result": 4.0},
      {"measurement": "Herbicidal rating SAGPY", "setting": "[4]; Rate 0.2500 kg/ha", "result": 4.0},
      {"measurement": "Preemergence herbicidal rating AMBEL", "setting": "AMBEL (Ragweed, Common); rate 0.0156 kg/ha", "result": 0.5},
      {"measurement": "Preemergence herbicidal rating AMBEL", "setting": "AMBEL (Ragweed, Common); rate 0.0313 kg/ha", "result": 1.0},
      {"measurement": "Preemergence herbicidal rating AMBEL", "setting": "AMBEL (Ragweed, Common); rate 0.0625 kg/ha", "result": 3.0},
      {"measurement": "Preemergence herbicidal rating AMBEL", "setting": "AMBEL (Ragweed, Common); rate 0.1250 kg/ha", "result": 9.0},
      {"measurement": "Preemergence herbicidal rating AMBEL", "setting": "AMBEL (Ragweed, Common); rate 0.2500 kg/ha", "result": 9.0},
      {"measurement": "Preemergence herbicidal rating AMBEL", "setting": "AMBEL (Ragweed, Common); rate 0.5000 kg/ha", "result": 9.0},
      {"measurement": "Herbicidal rating ECHORC", "setting": "[5]; Rate 0.0313 kg/ha", "result": 7.0},
      {"measurement": "Herbicidal rating ECHORC", "setting": "[5]; Rate 0.0625 kg/ha", "result": 7.0},
      {"measurement": "Herbicidal rating ECHORC", "setting": "[5]; Rate 0.1250 kg/ha", "result": 9.0},
      {"measurement": "Herbicidal rating ECHORC", "setting": "[5]; Rate 0.2500 kg/ha", "result": 9.0},
      {"measurement": "TRZAWR herbicidal rating", "setting": "[6]; rate 0.0158 kg/ha", "result": 3.5},
      {"measurement": "TRZAWR herbicidal rating", "setting": "[6]; rate 0.0313 kg/ha", "result": 7.0},
      {"measurement": "TRZAWR herbicidal rating", "setting": "[6]; rate 0.0625 kg/ha", "result": 8.0},
      {"measurement": "TRZAWR herbicidal rating", "setting": "[6]; rate 0.1250 kg/ha", "result": 7.5},
      {"measurement": "Herbicidal rating CYPSE", "setting": "CYPSE (Flatsedge); Rate 0.0313 kg/ha", "result": 0.0},
      {"measurement": "Herbicidal rating CYPSE", "setting": "CYPSE (Flatsedge); Rate 0.0625 kg/ha", "result": 0.0},
      {"measurement": "Herbicidal rating CYPSE", "setting": "CYPSE (Flatsedge); Rate 0.1250 kg/ha", "result": 4.0},
      {"measurement": "Herbicidal rating CYPSE", "setting": "CYPSE (Flatsedge); Rate 0.2500 kg/ha", "result": 4.0},
      {"measurement": "CHEAL herbicidal rating", "setting": "[7]; rate 0.0158 kg/ha", "result": 5.0},
      {"measurement": "CHEAL herbicidal rating", "setting": "[7]; rate 0.0313 kg/ha", "result": 9.0},
      {"measurement": "CHEAL herbicidal rating", "setting": "[7]; rate 0.0625 kg/ha", "result": 9.0},
      {"measurement": "CHEAL herbicidal rating", "setting": "[7]; rate 0.1250 kg/ha", "result": 9.0}
    ]}
  ]
}
